Assay results taken from US7544703B2, “Cyclic compound having 4-pyridylalkylthio group having substituted or unsubstituted amino group introduced therein” (Santen Pharmaceutical Co., Ltd., priority 2004, dated 2009).
Structures can show the parent of a compound that is named as a salt.

Experiments:
B16 cells = test: Tumor growth inhibitory action test using cancer models in mice (B16 cells); format: in vivo; conditions: C57BL/6N mouse, B16 cells intradermal; 100 mg/kg/day oral once a day, day 0 to day 10; average of 9 mice per group; read-out: Tumor tissue weight inhibition rate (%)
Method: A tumor growth inhibitory action test of the compounds of the present invention was performed using a tumor growth model in mice, which is one of the widely-used methods of evaluating in vivo anticancer effects of drugs.
As one of the widely-used methods of evaluating anticancer effects of drugs, a tumor growth inhibitory action test using cancer models in mice has been reported in Cancer Res., 59, 5209-5218 (1999). According to the method described in the above-mentioned document, a tumor growth inhibitory action test of the compounds of the present invention was performed, the tumor tissue weight inhibition rate was calculated, and the anticancer effect of each of the compounds of the present invention was evaluated using the obtained rate as an index.
A 1% aqueous methyl cellulose solution was added to each test compound to suspend it with a sonicator, whereby a 10 mg/mL test compound suspension was prepared.
Physiological saline was added to B16 cells, whereby a 3.3×10^7 cells/mL B16 cell suspension was prepared.
• 1) The back of each mouse (female, 6 weeks of age, C57BL/6N mouse) was depilated using a depilatory under Nembutal anesthesia. • 2) Several days after the depilation, the B16 cell suspension (300 μL) was injected intradermally into the back of the mouse under Nembutal anesthesia. • 3) From the B16 cell injection day (i.e. on day 0) to day 10, the test compound suspension (100 mg/kg/day) was orally administered once a day consecutively. • 4) Ten days after the injection of the cells, the mouse was euthanized with CO2 gas. • 5) A tumor tissue was enucleated from the mouse, and the weight of the tumor tissue was measured with an electronic balance. • 6) A test was performed in the same manner as in 1) to 5) except that the 1% aqueous methyl cellulose solution was used instead of the test compound suspension, and the result was used as a control. (Calculation of Tumor Tissue Weight Inhibition Rate)
A tumor tissue weight inhibition rate (the average of 9 mice per group), which was used as an index of anticancer effect, was calculated according to the following calculation equation. Tumor tissue weight inhibition rate (%)=100−(Mx/Mo)×100 (Calculation Equation) Mo: Tumor tissue weight of control group Mx: Tumor tissue weight of test compound solution administration group (Test Results and Discussion)

[1] = tested on: HUVEC (normal human umbilical vein endothelial cells); test: VEGF-induced HUVEC proliferation: cell proliferation inhibitory action test; format: cell-based; conditions: 72 h, 5 μL of 20 μg/mL test compound solution per well, WST-8 absorbance at 450 nm three days after VEGF addition, read-out: Cell proliferation inhibition rate (%);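 also: each well holds 100 µL cell suspension before compound addition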
Method: A cell proliferation inhibitory action test of the compounds of the present invention was performed using a VEGF-induced HUVEC proliferation evaluation system (HUVEC stands for normal human umbilical vein endothelial cells), which is one of the widely-used methods of evaluating in vitro angiogenesis inhibitory effects of drugs. As one of the widely-used methods of evaluating angiogenesis inhibitory effects of drugs, a cell proliferation inhibitory action test using a VEGF-induced HUVEC proliferation reaction evaluation system has been reported in Cancer Res., 59, 99-106 (1999). According to the method described in the above-mentioned document, a cell proliferation inhibitory action test of the compounds of the present invention was performed, the cell proliferation inhibition rate was calculated, and the angiogenesis inhibitory effect of each of the compounds of the present invention was evaluated using the obtained rate as an index. Each test compound was dissolved in dimethyl sulfoxide (hereinafter abbreviated as DMSO), and the obtained solution was diluted with a commercially available phosphoric acid buffer solution (hereinafter abbreviated as PBS), whereby a 20 μg/mL test compound solution was prepared. HUVEC was suspended in a 0.5% fetal bovine serum (hereinafter abbreviated as FBS)-containing F12K medium, whereby a 2×10^4 cells/mL HUVEC suspension was prepared. VEGF was dissolved in 0.1% bovine serum albumin-containing PBS, and the obtained solution was diluted with the 0.5% FBS-containing F12K medium, whereby a 400 ng/mL VEGF solution was prepared. • 1) The HUVEC suspension was inoculated in an amount of 100 μL into each well of a 96-well plate coated with type I collagen (2×10^3 cells per well). • 2) One day after the inoculation, the test compound solution was added in an amount of 5 μL per well. • 3) One hour after the addition of the test compound solution, the VEGF solution was added in an amount of 5 μL per well. • 4) Three days after the addition of the VEGF solution, WST-8 assay kit (Dojin Chemical Co., Ltd.) was added in an amount of 10 μL per well. • 5) After 3 hours, the above-mentioned plate was attached to an absorptiometer (Multilabel Counter ARVO), and an absorbance at 450 nm of each well suspension (hereinafter referred to as test compound suspension) was measured. • 6) A test was carried out in the same manner as in the above 1) to 5) except that 1.0% DMSO was used instead of the test compound solution. The result was used as a control. Incubation was carried out under conditions of 37° C., 5% carbon dioxide and […] in an incubator throughout the above-mentioned test steps. The cell proliferation inhibition rate (%), which was used as an index of an angiogenesis inhibitory effect, was calculated according to the following calculation equation. Cell proliferation inhibition rate (%)=100−{(Absorbance of test compound suspension−A)/(absorbance of control−A)}×100 (Calculation Equation) A: Absorbance of only cell suspension (cell+medium) (Test Results and Discussion)

CC(=O)Nc1cc(CSc2ccccc2C(=O)Nc2cc(C)cc(C)c2)ccn1 [Compound 4-43, 2-(2-Acetylaminopyridin-4-ylmethylthio)-N-(3,5-dimethylphenyl)benzamide]
inhibition in vivo at 100 mg/kg/day (B16 cells): 47%

CC(C)c1cccc(NC(=O)c2cccnc2SCc2ccnc(N)c2)c1 [Compound 3-2, 2-(2-Aminopyridin-4-ylmethylthio)-N-(3-isopropylphenyl)pyridine-3-carboxamide monohydrochloride]
inhibition in vivo at 100 mg/kg/day (B16 cells): 61% | inhibition at 20 µg/mL (stock) [1]: 97%

Cc1cc(C)cc(NC(=O)c2cccnc2SCc2ccnc(N3CCOCC3)c2)c1 [Compound 1-4, N-(3,5-Dimethylphenyl)-2-(2-morpholinopyridin-4-ylmethylthio)pyridine-3-carboxamide]
inhibition in vivo at 100 mg/kg/day (B16 cells): 68% | inhibition at 20 µg/mL (stock) [1]: 100%

CC(=O)Nc1cc(CSc2ncccc2C(=O)Nc2ccc(OC(F)(F)F)c(Cl)c2)ccn1 [Compound 4-14, 2-(2-Acetylaminopyridin-4-ylmethylthio)-N-(3-chloro-4-trifluoromethoxyphenyl)pyridine-3-carboxamide]
inhibition in vivo at 100 mg/kg/day (B16 cells): 44%

CC(=O)Nc1cc(CSc2ccsc2C(=O)Nc2cc(C)cc(C)c2)ccn1 [Compound 4-56, 3-(2-Acetylaminopyridin-4-ylmethylthio)-N-(3,5-dimethylphenyl)thiophene-2-carboxamide]
inhibition in vivo at 100 mg/kg/day (B16 cells): 42% | inhibition at 20 µg/mL (stock) [1]: 99%

Cc1cc(C)cc(NC(=O)c2ccccc2SCc2ccnc(N)c2)c1 [Compound 3-20, 2-(2-Aminopyridin-4-ylmethylthio)-N-(3,5-dimethylphenyl)benzamide monohydrochloride]
inhibition in vivo at 100 mg/kg/day (B16 cells): 42% | inhibition at 20 µg/mL (stock) [1]: 100%

Nc1cc(CSc2ncccc2C(=O)Nc2ccc(Cl)cc2)ccn1 [Compound 3-9, 2-(2-Aminopyridin-4-ylmethylthio)-N-(4-chlorophenyl)pyridine-3-carboxamide monohydrochloride]
inhibition at 20 µg/mL (stock) [1]: 100%

CC(=O)N1CCN(c2cc(CSc3ncccc3C(=O)Nc3ccc4c(c3)CCC4)ccn2)CC1 [Compound 1-11, 2-[2-(4-Acetylpiperazin-1-yl)pyridin-4-ylmethylthio]-N-(indan-5-yl)-pyridine-3-carboxamide]
inhibition at 20 µg/mL (stock) [1]: 96%

CC(C)(C)OC(=O)Nc1cc(CSc2ncccc2C(=O)Nc2ccc3c(c2)CCC3)ccn1 [Compound 2-3, 2-(2-tert-Butoxycarbonylaminopyridin-4-ylmethylthio)-N-(indan-5-yl)pyridine-3-carboxamide]
inhibition at 20 µg/mL (stock) [1]: 100%

CCCNC(=O)Nc1cc(CSc2ncccc2C(=O)Nc2cc(C)cc(C)c2)ccn1 [Compound 5-1, N-(3,5-Dimethylphenyl)-2-[2-(N′-n-propylureido)pyridin-4-ylmethylthio]pyridine-3-carboxamide]
inhibition at 20 µg/mL (stock) [1]: 100%

NCC(=O)Nc1cc(CSc2ncccc2C(=O)Nc2ccc(OC(F)F)cc2)ccn1 [Compound 18-1, 2-(2-Aminoacetylaminopyridin-4-ylmethylthio)-N-(4-difluoromethoxyphenyl)pyridine-3-carboxamide]
inhibition at 20 µg/mL (stock) [1]: 88%

Cc1cc(C)cc(NC(=O)c2cccnc2SCc2ccnc(NS(=O)(=O)C(F)(F)F)c2)c1 [Compound 4-6, N-(3,5-Dimethylphenyl)-2-(2-trifluoromethanesulfonylaminopyridin-4-ylmethylthio)pyridine-3-carboxamide]
inhibition at 20 µg/mL (stock) [1]: 100%

Cc1cc(C)cc(NC(=O)c2cccnc2SCc2ccnc(N3CCCCC3)c2)c1 [Compound 1-5, N-(3,5-Dimethylphenyl)-2-[2-(piperidin-1-yl)pyridin-4-ylmethylthio]pyridine-3-carboxamide]
inhibition at 20 µg/mL (stock) [1]: 90%

CC(=O)Nc1cc(CSc2ncccc2C(=O)Nc2cccc(Cl)c2)ccn1 [Compound 4-16, 2-(2-Acetylaminopyridin-4-ylmethylthio)-N-(3-chlorophenyl)pyridine-3-carboxamide]
inhibition in vivo at 100 mg/kg/day (B16 cells): 74%

Cc1cc(C)cc(NC(=O)c2cccnc2SCc2ccnc(NC(=O)C(C)C)c2)c1 [Compound 4-4, N-(3,5-Dimethylphenyl)-2-(2-isobutyrylaminopyridin-4-ylmethylthio)pyridine-3-carboxamide]
inhibition at 20 µg/mL (stock) [1]: 100%

CCC(=O)Nc1cc(CSc2ncccc2C(=O)Nc2cc(C)cc(C)c2)ccn1 [Compound 4-2, N-(3,5-Dimethylphenyl)-2-(2-propionylaminopyridin-4-ylmethylthio)pyridine-3-carboxamide]
inhibition in vivo at 100 mg/kg/day (B16 cells): 51% | inhibition at 20 µg/mL (stock) [1]: 100%

Nc1cc(CSc2ccccc2C(=O)Nc2ccc(Cl)cc2)ccn1 [Compound 3-21, 2-(2-Aminopyridin-4-ylmethylthio)-N-(4-chlorophenyl)benzamide monohydrochloride]
inhibition at 20 µg/mL (stock) [1]: 100%

Cc1cc(C)cc(NC(=O)c2cccnc2SCc2ccnc(NC(=O)C(C)(C)C)c2)c1 [Compound 4-5, N-(3,5-Dimethylphenyl)-2-(2-pivaloylaminopyridin-4-ylmethylthio)pyridine-3-carboxamide]
inhibition at 20 µg/mL (stock) [1]: 100%

CN(C)CCN(C)CC(=O)NC(Sc1ncccc1C(=O)Nc1ccc(OC(F)(F)F)cc1)c1ccncc1 (stereo not drawn) [Compound 17-28, 2-[2-(N-(2-Dimethylaminoethyl)-N-methylamino)acetylaminopyridin-4-ylmethylthio]-N-(4-trifluoromethoxyphenyl)pyridine-3-carboxamide]
inhibition at 20 µg/mL (stock) [1]: 100%

CC(C)c1cccc(NC(=O)c2cccnc2SCc2ccnc(NC(=O)OC(C)(C)C)c2)c1 [Compound 2-2, 2-(2-tert-Butoxycarbonylaminopyridin-4-ylmethylthio)-N-(3-isopropylphenyl)pyridine-3-carboxamide]
inhibition at 20 µg/mL (stock) [1]: 100%

Cc1cc(C)cc(NC(=O)c2cccnc2SCc2ccnc(NC(=O)C(F)(F)F)c2)c1 [Compound 4-3, N-(3,5-Dimethylphenyl)-2-(2-trifluoroacetylaminopyridin-4-ylmethylthio)pyridine-3-carboxamide]
inhibition at 20 µg/mL (stock) [1]: 100%

CNC(=O)Nc1cc(CSc2ncccc2C(=O)Nc2ccc(OC(F)(F)F)cc2)ccn1 [Compound 9-2, 2-[2-(N′-Methylureido)pyridin-4-ylmethylthio]-N-(4-trifluoromethoxyphenyl)pyridine-3-carboxamide]
inhibition at 20 µg/mL (stock) [1]: 100%
